{"source": "patent EP0791004B1", "about": "“ACYLATED BENZYLGLYCOSIDES AS INHIBITORS OF SMOOTH MUSCLE CELL PROLIFERATION” (AMERICAN HOME PRODUCTS CORPORATION, priority 1994, dated 1996)", "system": "Porcine Smooth Muscle Cell", "experiment": "Smooth muscle cell proliferation, 3H thymidine incorporation (serum stimulated)", "format": "cell-based", "settings": "for IC50: 3H thymidine incorporation, read-out: Porcine Smooth Muscle Cell Antiproliferation IC50", "method": "The ability of the compounds of the present invention to inhibit smooth muscle cell proliferation was established using isolated aortic cells. Porcine aortas were received from a local slaughterhouse and were iced during transit. The aorta was scrupulously cleansed of fatty tissue and rinsed in sterile phosphate-buffered saline with 2% antibiotic/antimycotic (Gibco catalog # 600 - 5240 AG). The tissue was then digested in 10 - 15 mL of \"Enzyme Mixture\" containing collagenase type I, 165 U/mL; elastase type III, 15 U/mL; BSA, 2 mg/mL; and soybean trypsin inhibitor, 0.375 mg/mL followed by incubation at 37 °C under 5% CO2 for 10 - 15 min. After this treatment, the outer surface adventitia was easily removed by peeling with forceps. The aorta was then longitudinally cut and laid open and the endothelial layer was removed by scraping.\nThe medial layer of cells was rinsed in enzyme solution, and placed in a new 100 mm dish with 10 mL of enzyme solution. The aorta was minced using a fine pair of scissors and digested for 2 - 3 h at 37 °C in 30 mL of fresh enzyme solution. After digestion, the tissue was homogenized using a sterile Pasteur pipette with a fire polished tip or an eppendorf pipetter with a 200 - 1000 µL sterile pipette tip. The suspension was then centrifuged for 10 minutes at 8000 rpm and the pellet was suspended in 4 - 6 mL of fresh medium and plated onto 4 - 6 100 mm flasks with vented caps. Cells were allowed to grow to confluence and split using 0.25 % trypsin. Cells were evaluated for purity and overall quality using antibody to SMC actin.\nCells were assayed in early passage (generally passage 3 - 7) at sub-confluent conditions. Cultures were grown in 16 mm (24 well) multi-well culture dishes in medium 199 supplemented with 10% fetal bovine serum and 2% antibiotic/ antimycotic. At sub-confluence, the cells were placed in a defined serum free medium (AIM-V; Gibco) for 24 - 48 h prior to initiating the experimental protocol.\nCompounds were added to each well at 50 fold dilution (20 µL / well) and the plates were incubated for 24 - 36 h at 37 °C in 5% CO2. Compounds were initially dissolved in 50% ethanol and serially diluted into media. Compounds were routinely assayed at concentrations from 1 to 100 µM. As a control, grade II porcine intestinal mucosal heparin (sodium salt) from Sigma (H-7005) was routinely assayed in all cell preparations at concentrations from 0.1 to 100 µg/mL.\nAt the completion of the experiment, plates were placed on ice, washed three times with ice cold phosphate buffered saline (PBS) and incubated in ice cold 10% trichloroacetic acid (TCA) for 30 minutes to remove acid soluble proteins. Solution was transferred to scintillation vials containing 0.4 N HCl (500 µL/vial to neutralize NaOH) and each well was rinsed two times with water (500 µL) for a total volume of 2 mL/vial.\nData was obtained, in triplicate, for both control and experimental samples. Control (100%) data was obtained from maximally stimulated cells, as the result of growth factor or serum stimulation. Experimental data was obtained from cells maximally stimulated with growth factor or serum and treated with compound. Data was expressed as a percent of control from which a percent inhibition or IC50 could be determined.", "key": {"[1]": {"settings": "Sus scrofa, read-out: Porcine Smooth Muscle Cell Antiproliferation (% Inhibition at x concentration)"}}}
{"compound": "CC(=O)OC[C@H]1O[C@H](O[C@H]2[C@H](OC(C)=O)[C@@H](OC(C)=O)[C@H](OCc3ccc(C)c(NC(=O)c4cccc([N+](=O)[O-])c4)c3)O[C@@H]2COC(C)=O)[C@H](OC(C)=O)[C@@H](OC(C)=O)[C@@H]1OC(C)=O", "note": "[Example 4, N-[5-(Hepta-O-acetyl-β-D-maltosyloxymethyl)-2-methylphenyl]-3-nitrobenzamide]", "values": [{"measurement": "inhibition at 50 µg/mL", "setting": "[1]", "value": 13, "unit": "%"}]}
{"compound": "CC(=O)OC[C@H]1O[C@H](O[C@H]2[C@H](OC(C)=O)[C@@H](OC(C)=O)[C@H](OCc3ccc(C)c(NS(=O)(=O)c4ccc(C)cc4)c3)O[C@@H]2COC(C)=O)[C@H](OC(C)=O)[C@@H](OC(C)=O)[C@@H]1OC(C)=O", "note": "[Example 24, N-[5-(Hepta-O-acetyl-β-D-maltosyloxymethyl)-2-methylphenyl]-4-methylbenzenesulfonamide]", "values": [{"measurement": "inhibition at 40 µM", "setting": "[1]", "value": 61, "unit": "%"}]}
{"compound": "CC(=O)OC[C@H]1O[C@H](O[C@H]2[C@H](OC(C)=O)[C@@H](OC(C)=O)[C@H](OCc3ccc(N(S(=O)(=O)c4ccc([N+](=O)[O-])cc4)S(=O)(=O)c4ccc([N+](=O)[O-])cc4)c(C)c3)O[C@@H]2COC(C)=O)[C@H](OC(C)=O)[C@@H](OC(C)=O)[C@@H]1OC(C)=O", "note": "[Example 31, N-[4-(Hepta-O-acetyl-β-D-maltosyloxymethyl)-2-methylphenyl]-4-nitro-N-(4-nitrophenylsulfonyl)benzenesulfonamide]", "values": [{"measurement": "inhibition at 100 µM", "setting": "Sus scrofa, at 100 µM, read-out: Porcine Smooth Muscle Cell Antiproliferation (% Inhibition at x concentration)", "value": 37, "unit": "%"}]}
{"compound": "CC(=O)OC[C@H]1O[C@@H](OCc2ccc(C)c(NC(=O)c3cccc([N+](=O)[O-])c3)c2)[C@H](OC(C)=O)[C@@H](OC(C)=O)[C@@H]1OC(C)=O", "note": "[Example 1, N-[2-Methyl-5-(2,3,4,6-tetra-O-acetyl-β-D-glucopyranosyloxymethyl)phenyl]-3-nitrobenzamide]", "values": [{"measurement": "inhibition at 50 µg/mL", "setting": "[1]", "value": 79, "unit": "%"}]}
{"compound": "N-{3-[2-(Hepta-O-acetyl-β-D-maltosyloxymethyl)-6-methylphenylcarbamoyl]phenyl}-3,5-di-tert-butyl-4-hydroxybenzamide [Example 7]", "values": [{"measurement": "IC50", "value": 185, "unit": "µM"}]}
{"compound": "CC(=O)OC[C@H]1O[C@H](O[C@H]2[C@H](OC(C)=O)[C@@H](OC(C)=O)[C@H](OCc3ccc(N)c(C)c3)O[C@@H]2COC(C)=O)[C@H](OC(C)=O)[C@@H](OC(C)=O)[C@@H]1OC(C)=O", "note": "[Example 29, 4-(Hepta-O-acetyl-β-D-maltosyloxymethyl)-2-methylphenylamine]", "values": [{"measurement": "inhibition at 40 µM", "setting": "[1]", "value": 70, "unit": "%"}]}
{"compound": "CC(=O)OC[C@H]1O[C@H](O[C@H]2[C@H](OC(C)=O)[C@@H](OC(C)=O)[C@H](OCc3ccc(C)c(NC(=O)c4cccc(N)c4)c3)O[C@@H]2COC(C)=O)[C@H](OC(C)=O)[C@@H](OC(C)=O)[C@@H]1OC(C)=O", "note": "[Example 5, N-[5-(Hepta-O-acetyl-β-D-maltosyloxymethyl)-2-methylphenyl]-3-aminobenzamide]", "values": [{"measurement": "inhibition at 50 µg/mL", "setting": "[1]", "value": 44, "unit": "%"}]}
{"compound": "CC(=O)OC[C@H]1O[C@@H](OCc2ccc(C)c(NC(=O)c3cccc(N)c3)c2)[C@H](OC(C)=O)[C@@H](OC(C)=O)[C@@H]1OC(C)=O", "note": "[Example 2, 3-Amino-N-[2-methyl-5-(2,3,4,6-tetra-O-acethyl-β-D-glucopyranosyloxymethyl)phenyl]benzamide]", "values": [{"measurement": "inhibition at 50 µg/mL", "setting": "[1]", "value": 23, "unit": "%"}]}
{"compound": "Butane-1-sulfonic Acid N-[5-(Hepta-O-acetyl-β-D-maltosyloxymethyl)-2-methylphenyl]amide [Example 28]", "values": [{"measurement": "IC50", "value": 9, "unit": "µM"}]}
{"compound": "CCC(=O)OC[C@H]1O[C@H](O[C@H]2[C@H](OC(=O)CC)[C@@H](OC(=O)CC)[C@H](OCc3ccc(C)c(N(C(=O)CC)S(=O)(=O)c4ccc(N(C(=O)CC)S(C)(=O)=O)cc4)c3)O[C@@H]2COC(=O)CC)[C@H](OC(=O)CC)[C@@H](OC(=O)CC)[C@@H]1OC(=O)CC", "note": "[Example 33, N-Propionyl-4-[propionyl(methanesulfonyl)amino]-N-[5-(hepta-O-propionyl-β-D-maltosyloxymethyl)-2-methylphenyl]benzenesulfonamide]", "values": [{"measurement": "inhibition at 20 µM", "setting": "Sus scrofa, at 20 µM, read-out: Porcine Smooth Muscle Cell Antiproliferation (% Inhibition at x concentration)", "value": 30, "unit": "%"}]}
